Data from patent publication US20230212129A1, “QUINAZOLINE DERIVATIVES USEFUL AS SELECTIVE HDAC6 INHIBITORS” (AnnJi Pharmaceutical Co., Ltd., priority 2020, published 2023).

Experiments:
[1] = test system: dorsal root ganglion (DRG) cells; test: DRG neurite outgrowth after paclitaxel-induced damage; assay type: cell-based, C57BL/6J mice; conditions: 0.1 μM and 1 μM, 24 hours prior to 24-hour 0.1 μM paclitaxel; FIG. 1
Experimental: (§1) To investigate the effect of HDAC6 inhibitors in neuron protection and neuron regeneration, the recovery of dorsal root ganglion (DRG) cells post-paclitaxel injury was tested. Dorsal root ganglion was extracted from 7 week-old female C57BL/6J mice and incubated with HDAC6 inhibitors (compounds COMPOUND 33, COMPOUND 34, or COMPOUND 2) at the concentrations of 0.1 μM and 1 μM, or 100 ng/ml of BDNF, a neuronal growth factor (positive control), for 24 hours prior to a 24-hour incubation of 0.1 μM paclitaxel.
The neurite was stained by pIII-tubulin.

[2] = Oral pharmacokinetics (Table II); design: AUC: concentration or dose not given beside the values; conditions: in vivo; for AUC: unit inferred
[3] = target: T1, HDAC6 (Homo sapiens, UniProt Q9UBN7); test: HDAC6 activity, acetylated-AMC-labeled peptide substrate; assay type: biochemical; conditions: for HDAC6 selectivity (A)/(B): HDAC1 IC50 / HDAC6 IC50; for IC50: read-out: HDAC6 IC50 (B)
T1 construct: GST (N); host or cells: baculovirus expression system, Sf9 insect cells
T1 sequence (Q9UBN7 1-1215): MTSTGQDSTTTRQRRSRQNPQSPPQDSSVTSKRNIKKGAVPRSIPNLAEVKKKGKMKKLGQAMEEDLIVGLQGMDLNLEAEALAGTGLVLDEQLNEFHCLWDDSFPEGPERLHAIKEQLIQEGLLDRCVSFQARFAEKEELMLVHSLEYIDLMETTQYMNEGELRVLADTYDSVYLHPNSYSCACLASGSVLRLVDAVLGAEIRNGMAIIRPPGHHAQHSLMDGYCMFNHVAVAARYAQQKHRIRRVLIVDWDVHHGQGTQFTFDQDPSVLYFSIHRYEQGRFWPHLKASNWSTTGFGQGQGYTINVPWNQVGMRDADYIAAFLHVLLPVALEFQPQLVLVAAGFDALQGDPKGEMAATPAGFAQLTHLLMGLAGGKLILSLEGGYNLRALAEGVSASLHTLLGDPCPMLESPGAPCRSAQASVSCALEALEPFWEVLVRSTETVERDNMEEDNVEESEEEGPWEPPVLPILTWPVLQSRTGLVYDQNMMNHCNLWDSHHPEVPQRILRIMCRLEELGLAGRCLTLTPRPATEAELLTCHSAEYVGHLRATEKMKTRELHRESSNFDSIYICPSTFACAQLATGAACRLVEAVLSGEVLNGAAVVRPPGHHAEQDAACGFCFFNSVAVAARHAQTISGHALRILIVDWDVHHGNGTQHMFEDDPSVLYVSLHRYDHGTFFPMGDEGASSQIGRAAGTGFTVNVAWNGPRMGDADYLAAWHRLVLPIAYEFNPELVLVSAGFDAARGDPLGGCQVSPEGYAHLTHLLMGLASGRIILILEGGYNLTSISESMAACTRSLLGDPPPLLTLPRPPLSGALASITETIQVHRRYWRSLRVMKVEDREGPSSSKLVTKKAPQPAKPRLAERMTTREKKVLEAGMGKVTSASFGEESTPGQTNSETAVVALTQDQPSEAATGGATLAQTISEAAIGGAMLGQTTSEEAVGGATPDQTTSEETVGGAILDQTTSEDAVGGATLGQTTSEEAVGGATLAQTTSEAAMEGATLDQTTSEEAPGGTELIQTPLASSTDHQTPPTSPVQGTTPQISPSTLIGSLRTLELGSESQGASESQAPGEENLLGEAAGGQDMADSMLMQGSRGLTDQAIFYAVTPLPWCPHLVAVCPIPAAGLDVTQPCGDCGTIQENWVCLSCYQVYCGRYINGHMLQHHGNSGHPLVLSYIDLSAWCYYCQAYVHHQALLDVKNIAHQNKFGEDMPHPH
Experimental: (§2) The activities of HDAC 1 and 6 were measured by using an acetylated-AMC-labeled peptide substrate, a fluorogenic peptide from p53 residues 379-382 (RHIKKAc). The proteins involved in the assay are as the followings (1) Human HIDAC1 (Genflank Accession No. NM_004964): Full length with C-terminal GST tag, MW=79.9 kDa, expressed by baculovirus expression system in SP9 cells; and (2) Human HIDAC6 (Genflank Accession No. BC069243): Full length with N-terminal GST tag, MW=159 kDa, expressed by baculovirus expression system in Sf9 cells.

[4] = target: T2, HDAC1 (Homo sapiens, UniProt Q13547); test: HDAC1 activity, acetylated-AMC-labeled peptide substrate; assay type: biochemical
T2 construct: GST (C); host or cells: baculovirus expression system, Sf9 insect cells (SP9 [sic])
T2 sequence (Q13547 whole entry): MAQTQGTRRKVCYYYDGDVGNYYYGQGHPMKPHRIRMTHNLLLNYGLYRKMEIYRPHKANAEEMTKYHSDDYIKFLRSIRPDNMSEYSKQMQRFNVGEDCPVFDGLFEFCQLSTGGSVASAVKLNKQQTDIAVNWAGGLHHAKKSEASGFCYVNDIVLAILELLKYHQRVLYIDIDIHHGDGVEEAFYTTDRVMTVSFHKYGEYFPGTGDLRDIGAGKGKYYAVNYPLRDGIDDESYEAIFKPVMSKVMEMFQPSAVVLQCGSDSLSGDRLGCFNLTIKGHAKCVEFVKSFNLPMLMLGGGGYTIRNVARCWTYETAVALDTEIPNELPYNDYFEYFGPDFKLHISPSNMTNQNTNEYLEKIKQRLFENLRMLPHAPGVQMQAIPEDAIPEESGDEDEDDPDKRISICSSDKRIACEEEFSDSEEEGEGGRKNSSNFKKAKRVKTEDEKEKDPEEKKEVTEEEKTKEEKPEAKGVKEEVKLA
Experimental: as §2

[5] = test system: acetylated α-tubulin (Ac-α-tub); test: Western blot of acetylated α-tubulin in primary DRG cells; assay type: cell-based, C57BL/6J mice; conditions: 48 hours of treatment, FIG. 2
Experimental: as §1

[6] = test system: cisplatin-induced neuropathy; test: Cisplatin-induced neuropathy, von Frey paw-withdrawal murine model; assay type: in vivo, Balb/c mice; conditions: oral once daily Day 16 to 29 (pregabalin 15 mg/kg one hour prior to test); vs cisplatin control; FIG. 4
Experimental: To understand whether COMPOUND 2 exerts neuron protective activities in cisplatin-induced neuropathy, a paw-withdrawal murine model is deployed. The 50% paw withdrawal threshold (PWT) to a static mechanical stimulus was assessed using von Frey filament and up-and-down method following the procedure described by Chaplan (1994). Mechanical allodynia, a painful sensation caused by innocuous stimuli like light touch, was assessed by the manual von Frey test once per week (on day 7, 14, 21, 28, […], and 42). The animals indicated sensation by pulling back its paw. The minimum force leading to withdrawal of the paw was regarded as the reflex threshold.
Balb/c mice weighing about 25±2 gram were given cisplatin intraperitoneally at the dose of 1.5 mg/kg for 5 consecutive days (cumulative dose of 7.5 mg/kg), followed by 5 days of recovery. The cisplatin administration cycle was repeated once more to reach a cumulative dose of 15 mg/kg to induce neuropathy. Test compounds, COMPOUND 2 and ACY1215, were orally administered once daily for 2 weeks (except for the weekends) from Day 16 to 29. Pregabalin, a drug known to provide transient pain relief, was administered at a dose of 15 mg/kg prior to each von Frey stimulus test to serve as the positive control.

[7] = test system: paclitaxel-induced peripheral neuropathy; test: Paclitaxel-induced peripheral neuropathy, Von Frey test; assay type: in vivo, Sprague-Dawley (SD) rats; conditions: for mean withdrawal force threshold: 15 mg/kg one hour prior to test, mean±SEM
Experimental: Male Sprague-Dawley (SD) rats, weighing 320±30 grams, were given paclitaxel intraperitoneally at the dose of 6 mg/kg for 5 consecutive days with a total cumulative dose of 30 mg/kg to induce chemotherapy-induced peripheral neuropathy.
Compound 2 or vehicle was administered orally once daily for 2 weeks during the weekdays (Days 8 to 12 and 15-19). Mechanical allodynia is assessed by the manual Von Frey test once per week. The animals are given 20 to 30 minutes to acclimatize prior to the testing. The paw is pressed with a series of 8 manual Von Frey monofilaments with logarithmically incremental stiffness [3.61 (0.4 g), 3.84 (0.6 g), 4.08 (1.0 g), 4.31 (2.0 g), 4.56 (4.0 g), 4.93 (8.0 g), 5.18 (15.0 g) and (26.0 g)]. The manual Von Frey monofilament was applied perpendicularly from underneath the mesh floor to the central plantar surface with sufficient force to cause a slight buckling against the paw, and held for approximately 6-8 seconds. A positive response was noted if the paw is sharply withdrawn; ambulation is considered an ambiguous response, and in such cases, the stimulus is reapplied. The 50% paw withdrawal threshold (PWT) to a static mechanical stimulus was assessed using Von Frey filament and up-and-down method.
Von Frey data were presented as mean±SEM (Standard Error of the Mean). Treatment groups were compared to the paclitaxel control using Student's T-test. A p value <0.05 is considered to represent a significant difference.

[8] = test system: Rat DRG cells; test: Cisplatin-induced neurite degeneration in DRG cells; assay type: cell-based; conditions: 0.3 μM with 0.5 mM cisplatin, 48 hours; p<0.05; FIG. 3
Experimental: Rat DRG cells were used to investigate the protective effect of HDAC6 inhibitors. DRG cells were treated with 0.5 mM of cisplatin with or without 0.3 μM of COMPOUND 2 or ACY1215 for 48 hours. The neurite area and the number of blebs (cell apoptosis) per image were calculated and their ratio values among the tested groups were compared and shown in FIG. 3.

Structure (SMILES): CCc1nc2cc(F)c(/C=C/C(=O)NO)cc2c(=O)n1-c1ccc(OC)cc1C [Compound 34, (E)-3-(2-ethyl-7-fluoro-3-(4-methoxy-2-methylphenyl)-4-oxo-3,4-dihydroquinazolin-6-yl)-N-hydroxyacrylamide]
- neurite outgrowth [1]: significantly rescued the neurite outgrowth
- Cmax [2]: 873 ng/mL
- AUC [2]: 11000 ng·h/mL
- HDAC6 selectivity (A)/(B) [3]: 175
- IC50 [3]: 26 nM
- IC50 [4]: 4550 nM
- tubulin hyperacetylation [5]: tubulin hyperacetylation

Structure (SMILES): CC(C)C[C@H](CN)CC(=O)O [Pregabalin, reference compound]
- mean withdrawal threshold (50% PWT) [6]: increased withdrawal threshold
- mean withdrawal force threshold ([7]; Day 14): 24.1 ± 3.45 g
- mean withdrawal force threshold ([7]; Day 21): 26 ± 0 g
- pain-relief after dosing was stopped ([7]; FIG. 7): failed to show the efficacy

Structure (SMILES): Cc1cccc(C)c1-n1c(C)nc2cc(F)c(/C=C/C(=O)NO)cc2c1=O [Compound 1, (E)-3-(3-(2,6-dimethylphenyl)-7-fluoro-2-methyl-4-oxo-3,4-dihydroquinazolin-6-yl)-N-hydroxyacrylamide]
- Cmax [2]: 4130 ng/mL
- AUC [2]: 5830 ng·h/mL
- HDAC6 selectivity (A)/(B) [3]: 328
- IC50 [3]: 12 nM
- IC50 [4]: 3940 nM

Structure (SMILES): Cc1ccccc1-n1c(C)nc2cc(F)c(/C=C/C(=O)NO)cc2c1=O [Compound 44]
- Cmax [2]: 719 ng/mL
- AUC [2]: 5720 ng·h/mL
- HDAC6 selectivity (A)/(B) [3]: 129
- IC50 [3]: 20 nM
- IC50 [4]: 2580 nM

Structure (SMILES): CCc1nc2cc(F)c(/C=C/C(=O)NO)cc2c(=O)n1-c1ccc(Br)cc1C [Compound 6, (E)-3-(3-(4-bromo-2-methylphenyl)-2-ethyl-7-fluoro-4-oxo-3,4-dihydroquinazolin-6-yl)-N-hydroxyacrylamide]
- Cmax [2]: 3630 ng/mL
- AUC [2]: 42600 ng·h/mL
- HDAC6 selectivity (A)/(B) [3]: 85
- IC50 [3]: 60 nM
- IC50 [4]: 5100 nM

Structure (SMILES): CCc1nc2cc(F)c(/C=C/C(=O)NO)cc2c(=O)n1-c1ccc(F)cc1C [Compound 26, (E)-3-(2-ethyl-7-fluoro-3-(4-fluoro-2-methylphenyl)-4-oxo-3,4-dihydroquinazolin-6-yl)-N-hydroxyacrylamide]
- Cmax [2]: 2680 ng/mL
- AUC [2]: 12000 ng·h/mL
- HDAC6 selectivity (A)/(B) [3]: 180
- IC50 [3]: 24 nM
- IC50 [4]: 4320 nM

Structure (SMILES): CCc1nc2cc(F)c(/C=C/C(=O)NO)cc2c(=O)n1-c1cccc(C)c1C [Compound 22, (E)-3-(3-(2,3-dimethylphenyl)-2-ethyl-7-fluoro-4-oxo-3,4-dihydroquinazolin-6-yl)-N-hydroxyacrylamide]
- Cmax [2]: 3330 ng/mL
- AUC [2]: 9920 ng·h/mL
- HDAC6 selectivity (A)/(B) [3]: 77
- IC50 [3]: 55 nM
- IC50 [4]: 4240 nM

Structure (SMILES): CCc1nc2c(F)cc(/C=C/C(=O)NO)cc2c(=O)n1-c1c(C)cccc1C [Compound 11, (E)-3-(3-(2,6-dimethylphenyl)-2-ethyl-8-fluoro-4-oxo-3,4-dihydroquinazolin-6-yl)-N-hydroxyacrylamide]
- Cmax [2]: 727 ng/mL
- AUC [2]: 7180 ng·h/mL
- HDAC6 selectivity (A)/(B) [3]: 43
- IC50 [3]: 159 nM
- IC50 [4]: 6900 nM

Structure (SMILES): O=C(CCCCCCNC(=O)c1cnc(N(c2ccccc2)c2ccccc2)nc1)NO [ACY-1215, reference compound]
- mean withdrawal threshold (50% PWT) [6]: not ACY1215, Reverses Cisplatin-Induced Neuropathy
- neurite degeneration (neurite area and number of blebs ratio) [8]: significantly lesser degree of neurite degeneration
